Assay results from patent publication US20230146455A1, “TREATMENT OF INFLAMMATORY DISEASES WITH PEPTIDES AND PHARMACEUTICAL COMPOSITIONS” (Yuyu Pharma, Inc., priority 2020, published 2023).
Where “and” joins values, the source holds several entries; their conditions need not be identical. Equal entries are not always repeated. Where a SMILES comes first, the peptide text is derived from it. [ ]: non-standard residue; d: D form. Hyp = O=C(O)[C@@H]1C[C@@H](O)CN1

Tests used:
IL-6 = assay: Example 8 main study Luminex, LPS hPBMCs: IL-6; assay type: cell-based, human
Method: (§1) Human PBMCs were pretreated with YY-101, YDE-011, YDE-043 or reference compound; Xiidra® at various concentration (ranging from […] to 500 nM) for 2 h before stimulation. An equal volume of 0.5% DMSO was used as a vehicle control. Then, the cells were treated with LPS at 5 ug/ml, which was selected based on the pilot study. The supernatants from treated cells were harvested at 24 h and placed in a 96 well for Luminex cytokine & chemokine profiling using a Luminex 200 multiplex assay (Luminex; R&D system, USA).
(§2) The main study arm with triplicate wells per group in a 24-well plate: • 1. Blank • 2. PBMC: 0.5% DMSO • 3. PBMC+LPS (5 ug/ml) • 4. PBMC+YY-101 500 nM • 5. PBMC+YY-101 50 nM • 6. PBMC+YY-101 5 nM • 7. PBMC+YY-101 0.5 nM • 8. PBMC+LPS (5 ug/ml)+Xiidra® 500 nM • 9. PBMC+LPS (5 ug/ml)+Xiidra® 50 nM • 10. PBMC+LPS (5 ug/ml)+Xiidra® 5 nM • 11. PBMC+LPS (5 ug/ml)+Xiidra® 0.5 nM • 12. PBMC+LPS (5 ug/ml)+Xiidra® 0.05 nM • 13. PBMC+LPS (5 ug/ml)+Xiidra® 0.005 nM • 14. PBMC+LPS (5 ug/ml)+YY-101 500 nM • 15. PBMC+LPS (5 ug/ml)+YY-101 50 nM • 16. PBMC+LPS (5 ug/ml)+YY-101 5 nM • 17. PBMC+LPS (5 ug/ml)+YY-101 0.5 nM • 18. PBMC+LPS (5 ug/ml)+YY-101 0.05 nM • 19. PBMC+LPS (5 ug/ml)+YY-101 0.005 nM • 20. PBMC+LPS (5 ug/ml)+YDE-011 500 nM • 21. PBMC+LPS (5 ug/ml)+YDE-011 50 nM • 22. PBMC+LPS (5 ug/ml)+YDE-011 5 nM • 23. PBMC+LPS (5 ug/ml)+YDE-011 0.5 nM • 24. PBMC+LPS (5 ug/ml)+YDE-011 0.05 nM • 25. PBMC+LPS (5 ug/ml)+YDE-011 0.005 nM • 26. PBMC+LPS (5 ug/ml)+YDE-043 500 nM • 27. PBMC+LPS (5 ug/ml)+YDE-043 50 nM • 28. PBMC+LPS (5 ug/ml)+YDE-043 5 nM • 29. PBMC+LPS (5 ug/ml)+YDE-043 0.5 nM • 30. PBMC+LPS (5 ug/ml)+YDE-043 0.05 nM • 31. PBMC+LPS (5 ug/ml)+YDE-043 0.005 nM
(§3) Multiplex assay was used to measure 30 cytokines and chemokines. The 1:200 diluted cell supernatant and serial dilution of the standard were dispensed into a 96 well plate at 50 ul/well. Then, the pre-mixed cocktail of antibody-coated magnetic beads was dispensed at 50 ul/well and incubated at room temperature for 2 h in a horizontal orbital microplate shaker at 800±500 rpm. The beads were washed using a magnetic device to prevent loss. The biotin-antibody was dispensed in 50 ul of each well and incubated at room temperature for 1 h in a shaker at 800±500 rpm. After washing, streptavidin-PE was added at 50 ul/well and incubated at room temperature for 30 min in a shaker under the same conditions. Finally, after washing, wash buffer (100 ul/well) was added to the plate and incubated in a shaker for 2 min. The Luminex™ 200 setting were set according to the manufacturer's protocol. The data was calculated with a standard five-parameter logistic nonlinear regression analysis of the data (xPonent software 4.2, USA). Results were presented as concentration (ng/ml or pg/ml).

IL-8/CXCL8 = assay: Example 8 main study Luminex, LPS hPBMCs: IL-8/CXCL8; assay type: cell-based, human
Method: as §1, §2, §3

[1] = PBMC + LPS(5 ug/ml) + test article 0.005 nM
[2] = PBMC + LPS(5 ug/ml) + test article 0.005 nM, single replicates (1st, 2nd, 3rd)
[3] = PBMC + LPS(5 ug/ml) + test article 0.05 nM
[4] = PBMC + LPS(5 ug/ml) + test article 0.05 nM, single replicates (1st, 2nd, 3rd)
[5] = PBMC + LPS(5 ug/ml) + test article 0.5 nM
[6] = PBMC + LPS(5 ug/ml) + test article 0.5 nM, single replicates (1st, 2nd, 3rd)
[7] = PBMC + LPS(5 ug/ml) + test article 5 nM
[8] = PBMC + LPS(5 ug/ml) + test article 5 nM, single replicates (1st, 2nd, 3rd)
[9] = PBMC + LPS(5 ug/ml) + test article 50 nM
[10] = PBMC + LPS(5 ug/ml) + test article 50 nM, single replicates (1st, 2nd, 3rd)
[11] = PBMC + LPS(5 ug/ml) + test article 500 nM
[12] = PBMC + LPS(5 ug/ml) + test article 500 nM, single replicates (1st, 2nd, 3rd)
[13] = PBMC + test article 0.5 nM, no LPS
[14] = PBMC + test article 0.5 nM, no LPS, single replicates (1st, 2nd)
[15] = PBMC + test article 5 nM, no LPS
[16] = PBMC + test article 5 nM, no LPS, single replicates (1st, 2nd)
[17] = PBMC + test article 0.05 uM, no LPS
[18] = PBMC + test article 0.05 uM, no LPS, single replicates (1st, 2nd)
[19] = PBMC + test article 50 nM, no LPS
[20] = PBMC + test article 50 nM, no LPS, single replicates (1st, 2nd)
[21] = PBMC + test article 500 nM, no LPS, single replicates (1st, 2nd)
[22] = at as low as 5 μM, LPS 5 ug/mL 24 hrs

CC(C)C[C@H](NC(=O)CNC(=O)[C@H](CC(=O)O)NC(=O)[C@H](CCC(N)=O)NC(=O)CNC(=O)[C@@H]1C[C@@H](O)CN1)C(=O)N[C@@H](C)C(=O)NCC(=O)N1CCC[C@H]1C(=O)N[C@@H](CCCCN)C(=O)O [YY-101] (H-[Hyp]GQDGLAGPK-OH; N-terminus and C-terminus assumed)
IL-6 Concentration, Mean (IL-6; [1]): 18061.6 pg/mL
IL-6 Concentration (IL-6; [2]): 18760.0 pg/mL and 17676.7 pg/mL and 17748.1 pg/mL
IL-6 Concentration, Mean (IL-6; [3]): 18375.1 pg/mL
IL-6 Concentration (IL-6; [4]): 17605.3 pg/mL and 19105.4 pg/mL and 18414.7 pg/mL
IL-6 Concentration, Mean (IL-6; [5]): 18018.0 pg/mL
IL-6 Concentration (IL-6; [6]): 18069.4 pg/mL and 17248.3 pg/mL and 18736.2 pg/mL
IL-6 Concentration, Mean (IL-6; [7]): 17232.8 pg/mL
IL-6 Concentration (IL-6; [8]): 16606.0 pg/mL and 16439.5 pg/mL and 18652.8 pg/mL
IL-6 Concentration, Mean (IL-6; [9]): 16962.9 pg/mL
IL-6 Concentration (IL-6; [10]): 16320.6 pg/mL and 16689.2 pg/mL and 17879.0 pg/mL
IL-6 Concentration, Mean (IL-6; [11]): 17165.1 pg/mL
IL-6 Concentration (IL-6; [12]): 17129.3 pg/mL and 17748.1 pg/mL and 16617.9 pg/mL
IL-6 Concentration, Mean (IL-6; [13]): 16.2 pg/mL
IL-6 Concentration (IL-6; [14]): 5.0 pg/mL and 27.3 pg/mL
IL-6 Concentration, Mean (IL-6; [15]): 5.0 pg/mL
IL-6 Concentration (IL-6; [16]): 5.0 pg/mL
IL-6 Concentration, Mean (IL-6; [17]): 140.1 pg/mL
IL-6 Concentration (IL-6; [18]): 140.1 pg/mL and <2.65 pg/mL
IL-6 Concentration, Mean (IL-6; [19]): 5.0 pg/mL
IL-6 Concentration (IL-6; [20]): 5.0 pg/mL and <2.65 pg/mL
IL-6 Concentration (IL-6; [21]): <2.65 pg/mL
LPS-induced IL-6 (in words) (IL-6; [22]): significantly reduced
IL-8/CXCL8 Concentration, Mean (IL-8/CXCL8; [1]): 58481.9 pg/mL
IL-8/CXCL8 Concentration (IL-8/CXCL8; [2]): 61546.6 pg/mL and 56884.9 pg/mL and 57014.3 pg/mL
IL-8/CXCL8 Concentration, Mean (IL-8/CXCL8; [3]): 59990.6 pg/mL
IL-8/CXCL8 Concentration (IL-8/CXCL8; [4]): 57359.8 pg/mL and 60536.4 pg/mL and 62075.6 pg/mL
IL-8/CXCL8 Concentration, Mean (IL-8/CXCL8; [5]): 60251.0 pg/mL
IL-8/CXCL8 Concentration (IL-8/CXCL8; [6]): 60909.2 pg/mL and 57900.7 pg/mL and 61943.2 pg/mL
IL-8/CXCL8 Concentration, Mean (IL-8/CXCL8; [7]): 57315.8 pg/mL
IL-8/CXCL8 Concentration (IL-8/CXCL8; [8]): 55583.6 pg/mL and 55980.8 pg/mL and 60383.1 pg/mL
IL-8/CXCL8 Concentration, Mean (IL-8/CXCL8; [9]): 54680.4 pg/mL
IL-8/CXCL8 Concentration (IL-8/CXCL8; [10]): 54759.1 pg/mL and 53065.0 pg/mL and 56217.2 pg/mL
IL-8/CXCL8 Concentration, Mean (IL-8/CXCL8; [11]): 58292.3 pg/mL
IL-8/CXCL8 Concentration (IL-8/CXCL8; [12]): 60492.6 pg/mL and 59945.6 pg/mL and 54438.6 pg/mL
IL-8/CXCL8 Concentration, Mean (IL-8/CXCL8; [13]): 3635.9 pg/mL
IL-8/CXCL8 Concentration (IL-8/CXCL8; [14]): 1970.8 pg/mL and 5300.9 pg/mL
IL-8/CXCL8 Concentration, Mean (IL-8/CXCL8; [15]): 2809.1 pg/mL
IL-8/CXCL8 Concentration (IL-8/CXCL8; [16]): 3848.8 pg/mL and 1769.4 pg/mL
IL-8/CXCL8 Concentration, Mean (IL-8/CXCL8; [17]): 8117.7 pg/mL
IL-8/CXCL8 Concentration (IL-8/CXCL8; [18]): 13586.7 pg/mL and 2648.7 pg/mL
IL-8/CXCL8 Concentration, Mean (IL-8/CXCL8; [19]): 1630.9 pg/mL
IL-8/CXCL8 Concentration (IL-8/CXCL8; [20]): 2009.8 pg/mL and 1252.1 pg/mL
IL-8/CXCL8 Concentration, Mean (IL-8/CXCL8; PBMC + test article 500 nM, no LPS): 1641.8 pg/mL
IL-8/CXCL8 Concentration (IL-8/CXCL8; [21]): 1297.1 pg/mL and 1986.4 pg/mL
LPS-induced IL-8 (in words) (IL-8/CXCL8; [22]): significantly reduced
